Patent US20210085688A1, “PHARMACEUTICAL COMBINATIONS OF EGFR INHIBITORS AND METHODS OF USE THEREOF” (DANA-FARBER CANCER INSTITUTE, INC., priority 2018, published 2021)
Like-named read-outs stand apart in the source and are kept apart here.

Molecular target: EGFR T790M/L858R Ba/F3 cell line (Homo sapiens, UniProt P00533, T790M/L858R, cells depend on it)
Assay: Ba/F3 cell proliferation (MTS assay), EGFR T790M/L858R
Assay type: cell-based, murine
Method: The EGFR mutant L858R, Del E746_A750, L858R/T790M, DelE746_A750/T790M, L858R/T790M/C797S and Del/T790M/C797S Ba/F3 cells were previously described (Zhou et al., Nature 462, (2009), 1070-1074). All cell lines were maintained in RPMI 1640 (Cellgro; Mediatech Inc., Herndon, Calif.) supplemented with 10% FBS 100 units/mL penicillin, 100 units/mL streptomycin, and 2 mM glutamine. L858R cells were maintained in ACL-4 media (Invitrogen, Carlsbad, Calif.) supplemented with 5% FBS, 100 units/mL penicillin, 100 units/mL streptomycin, and 2 mM glutamine. The EGFR I941R mutation was introduced via site directed mutagenesis using the Quick Change Site-Directed Mutagenesis kit (Stratagene; La Jolla, Calif.) according to the manufacturer's instructions. All constructs were confirmed by DNA sequencing. The constructs were shuttled into the retroviral vector JP1540 using the BD Creator™ System (BD Biosciences). Ba/F3 cells were infected with retrovirus and according to standard protocols, as described previously (Zhou 2009). Stable clones were obtained by selection in puromycin (2 μg/ml).
Growth and inhibition of growth was assessed by MTS assay and was performed according to previously established methods (Zhou 2009). The MTS assay is a colorimetric method for determining the number of viable cells that is based on the bioreduction of MTS by cells to a formazan product that is soluble in cell culture medium and can be detected spectrophotometrically. […] All experimental points were set up in six wells and all experiments were repeated at least three times. […] The curves were fitted using a non-linear regression model with a sigmoidal dose response.

[1] = absence of cetuximab, read-out: Ba/F3 cellular activity (EC50) T790M/L858R
[2] = read-out: Ba/F3 cellular activity (EC50) T790M/L858R + Cetuximab, presence of 1 μg/mL cetuximab

EGFR T790M/L858R Ba/F3 cell line, sequence (P00533 whole entry T790M/L858R): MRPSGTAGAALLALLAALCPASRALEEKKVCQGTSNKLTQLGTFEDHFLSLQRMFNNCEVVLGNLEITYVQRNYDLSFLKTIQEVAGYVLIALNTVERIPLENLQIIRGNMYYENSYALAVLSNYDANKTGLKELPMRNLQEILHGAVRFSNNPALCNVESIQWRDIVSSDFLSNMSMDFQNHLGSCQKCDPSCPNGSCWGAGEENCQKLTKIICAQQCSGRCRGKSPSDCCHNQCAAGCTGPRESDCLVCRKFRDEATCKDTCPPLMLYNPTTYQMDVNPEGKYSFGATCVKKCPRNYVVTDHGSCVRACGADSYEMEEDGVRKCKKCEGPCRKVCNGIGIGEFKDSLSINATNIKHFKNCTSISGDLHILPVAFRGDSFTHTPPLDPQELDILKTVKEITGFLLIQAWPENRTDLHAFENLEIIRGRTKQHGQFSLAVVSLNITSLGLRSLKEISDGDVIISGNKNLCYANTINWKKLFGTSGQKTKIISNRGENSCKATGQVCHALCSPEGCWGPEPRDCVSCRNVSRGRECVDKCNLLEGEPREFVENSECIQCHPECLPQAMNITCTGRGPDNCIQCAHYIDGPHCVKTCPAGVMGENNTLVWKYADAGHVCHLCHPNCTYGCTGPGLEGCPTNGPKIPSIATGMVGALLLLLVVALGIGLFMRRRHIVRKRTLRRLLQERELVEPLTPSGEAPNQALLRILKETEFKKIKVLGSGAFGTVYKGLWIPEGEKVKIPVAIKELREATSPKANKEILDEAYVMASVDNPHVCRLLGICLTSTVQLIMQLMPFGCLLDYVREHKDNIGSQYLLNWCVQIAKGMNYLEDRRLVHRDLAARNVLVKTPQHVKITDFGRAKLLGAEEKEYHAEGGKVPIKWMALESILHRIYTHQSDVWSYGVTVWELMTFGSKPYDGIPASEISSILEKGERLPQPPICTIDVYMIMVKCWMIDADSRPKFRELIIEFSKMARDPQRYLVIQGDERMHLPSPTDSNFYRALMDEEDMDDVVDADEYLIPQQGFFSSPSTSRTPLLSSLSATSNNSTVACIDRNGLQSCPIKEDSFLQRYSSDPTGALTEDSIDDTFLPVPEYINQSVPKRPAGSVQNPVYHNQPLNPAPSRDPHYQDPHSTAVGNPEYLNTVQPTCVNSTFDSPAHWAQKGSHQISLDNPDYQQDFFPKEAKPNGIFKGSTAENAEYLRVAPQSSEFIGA

Compound | EC50 [1] [nM] | EC50 [2] [nM]
C=CC(=O)Nc1ccc2c(c1)N(Cc1ccccc1)C(=O)c1cc(-c3ccc4[nH]ccc4c3)ccc1N2 [Compound I-1] | ≥ 750 | 500 to 750
O=C(CCl)Nc1ccc2c(c1)N(Cc1ccccc1)C(=O)c1cc(-c3ccc4[nH]ccc4c3)ccc1N2 [Compound I-2] | < 250 | < 250
C=CC(=O)Nc1ccc2c(c1)N(Cc1ccccc1)C(=O)c1cc(-c3ccc(N4CCNCC4)cc3)ccc1N2 [Compound I-3, N-(10-Benzyl-11-oxo-2-(4-(piperazin-1-yl)phenyl)-10,11-dihydro-5H-dibenzo[b,e][1,4]diazepin-8-yl)acrylamide] | ≥ 750 | ≥ 750
O=C1c2cc(Br)ccc2Nc2ccc(F)cc2N1Cc1ccccc1 [I-a, 10-Benzyl-2-bromo-8-fluoro-5,10-dihydro-11H-dibenzo[b,e][1,4]diazepin-11-one] | ≥ 750 | 250 to 500
